The subject of test [1] is SW480 cells. In words: Sulforhodamine B (SRB) cell viability assay, SW480. It is filed as cell-based. The conditions noted are these: Homo sapiens, CRC cell line, 48 h, read-out: IC50 (μM) ± SD, SW480. The method, then:
(§1) The cells were allowed to adhere overnight, from 12 h to 18 h, and then treated with increasing concentrations of each compound, C9, A36, and A42 (0.125 μM, 0.25 μM, 0.5 μM, 1 μM, 2.5 μM, and 5 μM), in their respective culture mediums for 48 h. In addition to a negative control that consisted only of cells and growth medium, a negative control containing the highest concentration of the solvent in which the compound was dissolved (DMSO 0.1%) was also used. The SRB assay was performed according to Marques et al.. The IC50 values were obtained using GraphPad Prism version 8.2.1 through the application of a sigmoidal dose–response nonlinear regression, after logarithmic transformation. The selectivity index was determined by dividing the IC50 value of the non-neoplastic BJ-5ta cell line by the IC50 value of the cancer cell lines (IC50 BJ-5ta/IC50 cancer cell line); furthermore, for the CRC model, a second selectivity index was also determined using the non-neoplastic NCM460 cell line (IC50 NCM460/IC50 CRC cell line). According to the results of the selectivity index, the cell line with the highest selectivity value for each of the models, CRC and breast, was selected for subsequent characterization.
(§2) Three CRC-derived cell lines, SW480 (KRAS^G12V), HCT116 (KRAS^G13D), and RKO (BRAF^V600E), harboring somatic mutations on KRAS or BRAF, and two breast-cancer-derived cell lines, MDA-MB-231 (basal like) and MCF7 (luminal A subtype), together with two non-neoplastic cell lines, NCM460 (normal colon mucosal epithelial cell line) and BJ-5ta (normal foreskin fibroblast cell line), were used to study the activity and selectivity of the three new benzo[a]phenoxazine compounds, C9, A36, and A42. All cell lines were treated with a range of drug concentrations (0.125 μM, 0.25 μM, 0.5 μM, 1 μM, 2.5 μM, and 5 μM) for 48 h, and the effect on cell viability was assessed using a sulforhodamine B assay (SRB) (Figure 2). […] In addition, the selectivity index was determined using the BJ-5ta cell line as a reference, as well as the NCM460 cell line for the CRC model (Table 1).

The test system of test [2] is MCF7 cells. Description: Colony formation assay, MCF7. It is filed as cell-based, human. The conditions noted are these: MCF7, IC50/2, 48 h treatment. The method, then:
(§3) A colony formation assay was conducted on the RKO and MCF7 cell lines. In 6-well plates, 600 cells/mL and 800 cells/mL RKO and MCF7 cells, respectively, were seeded. Adherent cells were treated with the compounds C9, A36, and A42 at IC50/2 and IC50 concentrations or 0.1% DMSO (vehicle). As a control, untreated cells were used. Following a 48 h incubation period, the cells were twice rinsed with PBS 1× before being supplemented with new medium. After that, the cells were given 10–14 days to grow (new medium was added every 3 days). Following a PBS 1× rinse, the colonies were fixed for 30 min using 0.5% crystal violet and 6% glutaraldehyde. The ImageJ software (V1.53) was used to calculate the number of colonies. The percentage of colonies was determined and normalized for the untreated control.

For test [3], the system named is RKO cells. In words: Sulforhodamine B (SRB) cell viability assay, RKO. It is filed as cell-based. The conditions noted are these: Homo sapiens, CRC cell line, 48 h, read-out: IC50 (μM) ± SD, RKO. The method, then:
as §1, §2

Test [4] deals with MCF7 cells. Description: Cell proliferation by CFSE (flow cytometry), MCF7. Format: cell-based, human. The method, then:
(§4) RKO and MCF7 cell proliferation was evaluated through flow cytometry using the Carboxyfluorescein Diacetate Succinimidyl Ester (CFSE) probe. Confluent cells were collected, rinsed with PBS 1×, and incubated with 5 μM of CFSE for 15 min at 37 °C. Then, the cells were rinsed, resuspended in growth medium, and seeded in 12-well plates at 1 × 10^5 cells/mL. After 24 h, adherent cells were treated with compounds C9, A36, and A42 at IC50 and 2 × IC50 concentrations or 0.1% DMSO (vehicle). Untreated cells were used as controls. The cells were harvested at different time points of 0 h, 24 h, […], and 72 h. The cells were then analyzed in a flow cytometer and the CFSE median fluorescence intensity was quantified using the FITC-A channel. All median values were normalized to the time point 0 h.
(§5) The benzo[a]phenoxazines C9, A36, and A42 were tested for their capacity to decrease cell growth using an optimized flow cytometry Carboxyfluorescein Diacetate Succinimidyl Ester (CFSE) labeling procedure. This procedure enables the differentiation of successive rounds of cell division, since the CFSE probe is uniformly distributed among daughter cells during cell division. As a result, a decrease in green CFSE fluorescence was employed as an indicator of cell proliferation.

Test [5] relates to MDA-MB-231 cells. Description: Sulforhodamine B (SRB) cell viability assay, MDA-MB-231. Format: cell-based, human. The conditions noted are these: for IC50: Homo sapiens, MDA-MB-231, breast cancer cell line, 48 h, SRB, read-out: IC50 (μM) ± SD, MDA-MB-231; for Selectivity Index Cell Line IC50/BJ-5ta IC50: MDA-MB-231 versus BJ-5ta. The method, then:
as §1
Three CRC-derived cell lines, SW480 (KRAS^G12V), HCT116 (KRAS^G13D), and RKO (BRAF^V600E), harboring somatic mutations on KRAS or BRAF, and two breast-cancer-derived cell lines, MDA-MB-231 (basal like) and MCF7 (luminal A subtype), together with two non-neoplastic cell lines, NCM460 (normal colon mucosal epithelial cell line) and BJ-5ta (normal foreskin fibroblast cell line), were used to study the activity and selectivity of the three new benzo[a]phenoxazine compounds, C9, A36, and A42. All cell lines were treated with a range of drug concentrations (0.125 μM, 0.25 μM, 0.5 μM, 1 μM, 2.5 μM, and 5 μM) for 48 h, and the effect on cell viability was assessed using a sulforhodamine B assay (SRB) (Figure 2). The results were used to determine the IC50 value of each compound for all the cell lines (Table 1). In addition, the selectivity index was determined using the BJ-5ta cell line as a reference, as well as the NCM460 cell line for the CRC model (Table 1).

For test [6], the system named is MCF7 cells. Description: Sulforhodamine B (SRB) cell viability assay, MCF7. The conditions noted are these: Homo sapiens, breast cancer cell line, 48 h, read-out: IC50 (μM) ± SD, MCF7. Format: cell-based. The method, then: as §1, §2
Test [7] deals with NCM460 cells. Description: Sulforhodamine B (SRB) cell viability assay, NCM460. Format: cell-based. As to conditions: Homo sapiens, non-neoplastic cell line, 48 h, read-out: IC50 (μM) ± SD, NCM460. The procedure: as §1, §2
Test [8] deals with RKO cells. Description: Cell proliferation by CFSE (flow cytometry), RKO. It is filed as cell-based, human. As to conditions: IC50 and 2 × IC50, 24 h, 48 h, 72 h. The procedure:
as §4, §5

Test [9] deals with BJ-5ta cells. In words: Sulforhodamine B (SRB) cell viability assay, BJ-5ta. Format: cell-based. The conditions noted are these: Homo sapiens, non-neoplastic cell line, 48 h, read-out: IC50 (μM) ± SD, BJ-5ta. The procedure: as §1, §2
For test [10], the system named is HCT116 cells. In words: Sulforhodamine B (SRB) cell viability assay, HCT116. It is filed as cell-based. As to conditions: Homo sapiens, HCT-116, CRC cell line, 48 h, read-out: IC50 (μM) ± SD, HCT116. The procedure:
as §1, §2

In test [11] the test system is S. cerevisiae. The conditions noted are these: yeast S. cerevisiae, microdilution; cited from earlier work.
Test [12] concerns RKO cells. In words: Annexin V/PI assay (flow cytometry), RKO. It is filed as cell-based, human. As to conditions: 2 × IC50 and 4 × IC50, 48 h. The method, then:
(§6) RKO and MCF7 cells were seeded in 12-well plates at a density of 1 × 10^5 cells/mL. After 24 h, the cells were treated with C9, A36, and A42 at 2 × IC50 and 4 × IC50 concentrations or 0.1% DMSO (vehicle). Untreated cells were used as controls. After 48 h, floating and adherent cells were collected. The cells were resuspended in […] of binding buffer and treated for 15 min in the dark with 5 μL of Annexin V-FITC (Detection Kit-ab14085) and 5 μL of Propidium Iodide (50 μg/mL). The samples were subjected to flow cytometry analysis, PI fluorescence was detected using the ECD-A channel, and Annexin V fluorescence was detected using the FITC-A channel.
(§7) One of the main goals of clinical oncology is the development of compounds and treatments capable of selectively eliminating cancer cells. In this sense, we next evaluated the capability of the compounds to induce cell death in both cell lines. For this, we performed a flow cytometry analysis using annexin V-FITC and propidium iodide PI double staining. The conjugation of these two probes allowed for the discrimination of viable (negative for both), early apoptotic (annexin + and PI−), late apoptotic (annexin+ and PI+), and necrotic (annexin− and PI+) cells. […] Both flouting and attached cells were harvested and double stained.

The subject of test [13] is MCF7 cells. In words: Annexin V/PI assay (flow cytometry), MCF7. Format: cell-based, human. As to conditions: MCF7, 2 × IC50 and 4 × IC50, 48 h. The procedure:
as §6, §7

Test [14] deals with RKO cells. Description: Colony formation assay, RKO. As to conditions: 10-14 days growth. It is filed as cell-based, human. The method, then: as §3
In test [15] the test system is SW480 cells. Further details: method as in PMID 36614056. The conditions noted are these: lead compound, CRC cell line; read-out: IC50 (μM) ± SD, SW480; cited from earlier work.
Test [16] deals with BJ-5ta cells. Details: method as in PMID 36614056. As to conditions: lead compound, non-neoplastic cell line; read-out: IC50 (μM) ± SD, BJ-5ta; cited from earlier work.
For test [17], the system named is MDA-MB-231 cells. Details: method as in PMID 36614056. As to conditions: lead compound, breast cancer cell line; read-out: IC50 (μM) ± SD, MDA-MB-231; cited from earlier work.
Test [18] relates to NCM460 cells. Further details: method as in PMID 36614056. The conditions noted are these: lead compound, non-neoplastic cell line; read-out: IC50 (μM) ± SD, NCM460; cited from earlier work.
Test [19] relates to HCT116 cells. Details: method as in PMID 36614056. As to conditions: lead compound, CRC cell line; read-out: IC50 (μM) ± SD, HCT116; cited from earlier work.
Test [20] relates to RKO cells. Details: method as in PMID 36614056. As to conditions: lead compound, CRC cell line; read-out: IC50 (μM) ± SD, RKO; cited from earlier work.
Test [21] deals with MCF7 cells. Further details: method as in PMID 36614056. The conditions noted are these: lead compound, breast cancer cell line; read-out: IC50 (μM) ± SD, MCF7; cited from earlier work.

Values after ≈ are worked out from the molar mass of the structure shown. Like-named read-outs stand apart in the source and are kept apart here. Where only a bound is given, the exact number is not on record here.

The values that follow come from PMC11352945, “Anticancer Activity of Benzo[a]phenoxazine Compounds Promoting Lysosomal Dysfunction” (Cells, 2024).

Take `CCCNc1cc2oc3cc(=[N+](CCC)CCC)ccc-3nc2c2ccccc12` [A36]: the IC50 in [1] was determined as 0.72 ± 0.03 µM; in test [3], 0.37 ± 0.03 µM; in test [5], 1.01 ± 0.09 µM; in test [6] it was 0.63 ± 0.05 µM; in test [7], 2.06 ± 0.25 µM; in test [9], 2.44 ± 0.18 µM. For the same compound, the IC50 in [10] worked out at 1.28 ± 0.06 µM. In [2], the Colonies detected result is recorded as “reduced number of small colonies”. Further, the “CFSE median fluorescence normalized to T0” value came to 62% in test [4] (MCF7, 2 × IC50, 24 h (untreated 37%)); 59% in test [4] (MCF7, 2 × IC50, 48 h (untreated 21%)); 47% in test [4] (MCF7, 2 × IC50, 72 h (untreated 10%)); 53% in [4] (MCF7, IC50 concentration, 24 h (untreated 37%)); 50% in test [4] (MCF7, IC50 concentration, 48 h (untreated 21%)); 41% in test [4] (MCF7, IC50 concentration, 72 h (untreated 10%)). In addition, the “Effect on cell proliferation (CFSE)” value is listed as “highest effect” in [4] (MCF7, IC50 and 2 × IC50, 24 h, 48 h, 72 h); “highest effect” in test [8]. Further, the “Selectivity Index Cell Line IC50/BJ-5ta IC50” value in test [5] is listed as 2.41. Besides, the “MIC (minimum inhibitory concentration)” value in test [11] was 1.56 µM.
Turning to `ClCCCN=c1cc2oc3c4c5c(cc3nc-2c2ccccc12)CCCN5CCC4` [A42], the “Cell death induction (Annexin V/PI)” value in test [12] and in test [13] was “most powerful compounds” each time. The IC50 in test [1] was 0.78 ± 0.07 µM; in test [3], 0.29 ± 0.01 µM; in [5], 0.79 ± 0.03 µM; in test [6] it was 0.54 ± 0.02 µM; in test [7], 2.59 ± 0.31 µM; in test [9] it was 2.58 ± 0.19 µM. In addition, the 50% inhibitory concentration (IC50) in [10] is 1.13 ± 0.07 µM. The Colonies detected entry in test [2] is “reduced number of small colonies”. The “Reduction of the colonies formed” value in test [14] (IC50, 48 h treatment) is greater than 90%; in [14] (IC50/2, 48 h treatment), “more than 75%”. The “Selectivity Index Cell Line IC50/BJ-5ta IC50” value in [5] is on record as 3.26. Besides, in [11], the “MIC (minimum inhibitory concentration)” value is 0.78 µM (≈ 0.326 µg/mL).
Take `CCN=c1cc2oc3cc(NCCCC(=O)OCC)c4ccccc4c3nc-2cc1C` [BaP1]: the IC50 was 5.6 ± 0.19 µM in [15]; 1.83 ± 0.06 µM in test [16]; 1.73 ± 0.03 µM in test [17]; 12.8 ± 2.05 µM in test [18]; 1.9 ± 0.09 µM in test [19]; 1.4 ± 0.08 µM in test [20]. In addition, the IC50 in test [21] was 0.92 ± 0.07 µM. The “Selectivity Index Cell Line IC50/BJ-5ta IC50” value in [5] stood at 1.05. The “MIC (minimum inhibitory concentration)” value in [11] was 25 µM (≈ 10.4 µg/mL).
